In US9078446B2, “Use of N-(tetrazol-4-yl)- or N-(triazol-3-yl)arylcarboxamides or their salts for controlling unwanted plants in areas of transgenic crop plants being tolerant to HPPD inhibitor herbicides” (BAYER INTELLECTUAL PROPERTY GMBH, priority 2011, dated 2015):

Experiments:
Assay type in all cases: in vivo
[1] = tested on: non-transformed tobacco plants (Wt); experiment: Symptoms due to herbicide application on tobacco plants (damage classes 0-3); settings: 25 g Al/ha, one week after application
Description: (§1) Seeds harvested from TO transformants will be put on standard soil for germination. Three weeks later plantlets (T1) will be transferred to single pots and grown under standard cultivation conditions (PCT/EP2010/070575, published as WO 2011/076889). Two weeks later, plants were sprayed with several N-(tetrazol-4-yl)- or N-(triazol-3-yl)arylcarboxamides as defined above.
(§2) Tables F1 to F5: Evaluation of the Symptoms Observed Due to the Application of the Herbicides on Transgenic Tobacco Plants, Expressing the Mutant Pseudomonas fluorescens HPPD G336W, the Avena HPPD (AvHPPD), the HPPD from Kordia algicida FMP27 or the HPPD from Blepharisma japonicum (FMP37), Compared to Non-Tranformed Tobacco Plants (“Wt”).
(§3) The herbicides (with “g Al/ha” meaning “g active ingredient/ha”) were applied on 8 to 10 plants originated from 1 to 3 independent transgenic events per transgene.
(§4) The symptoms were evaluated and classified as following: • 3=Very strong damage • 2=Strong damage • 1=Light and transient damage • 0=No damage

[2] = tested on: transgenic tobacco plants expressing Avena HPPD (AvHPPD); experiment: Symptoms due to herbicide application on transgenic tobacco plants (damage classes 0-3); settings: 25 g Al/ha, one week after application
Description: (§5) Genes coding for the selected HPPD were obtained from a member of the group of organisms consisting of Avena sativa, Pseudomonas fluorescens mutant G336W, Blepharisma japonicum and Kordia algicida and cloned into the binary vector pBin19 allowing the integration of DNA into the tobacco genome, under the control of the CaMV35S promoter. For the cloning procedures, see A2 above for Avena sativa, see B2 above for Pseudomonas fluorescens, mutant G336W, see PCT/EP2010/070567 (published as WO 2011/076882, Example 5; for Blepharisma japonicum (FMP37) and see PCT/EP2010/070575, Example 5 for Kordia algicida (FMP27). Between the sequence corresponding to the promoter and the sequence coding for the HPPD a DNA sequence coding for a transit peptide to the chloroplast was inserted, in order to add at the N-terminal extremity of the protein a target signal to allow the localization of the HPPD protein into the plant chloroplast.
as §1, §2, §3, §4

[3] = tested on: transgenic tobacco plants expressing HPPD from Blepharisma japonicum (FMP37); experiment: as above; settings: 25 g Al/ha, one week after application
Description: as §5, §1, §2, §3, §4

[4] = tested on: transgenic tobacco plants expressing HPPD from Kordia algicida FMP27; experiment: as above; settings: 25 g Al/ha, one week after application
Description: as §5, §1, §2, §3, §4

[5] = tested on: transgenic tobacco plants expressing mutant Pseudomonas fluorescens HPPD G336W (PfHPPD-G336W); experiment: as above; settings: PfHPPD-G336W line 646; 25 g Al/ha; one week after application
Description: as §5, §1, §2, §3, §4

[6] = tested on: transgenic tobacco plants expressing tolerant HPPD enzymes; experiment: Tolerance of tobacco plants expressing tolerant HPPD enzymes (all transgenes)
Description: as §5, §1, §2, §3, §4

[7] = tested on: soybean plants expressing Pseudomonas fluorescens G336W mutant, FMP 27 and FMP 37; experiment: Tolerance to HPPD inhibitors of soybean plants expressing tolerant HPPD enzymes; settings: T1 soybean plants; one week after application
Description: (§6) Genes coding for the selected HPPD were obtained from a member of the group of organisms consisting of Blepharisma japonicum and Kordia algicida and cloned into an appropriate binary vector allowing the integration of DNA into the soybean genome, under the control of the CaMV35S promoter. For the respective cloning procedures, see WO2011076882 (PCT/EP2010/070567), Example 9; for Blepharisma japonicum (FMP37) and WO2011076889 (PCT/EP2010/070575), Example 9 for Kordia algicida (FMP27).
Between the sequence corresponding to the promoter and the sequence coding for the HPPD a DNA sequence coding for a transit peptide to the chloroplast was inserted, in order to add at the N-terminal extremity of the protein a target signal to allow the localization of the HPPD protein into the plant chloroplast. By using the vectors “pFCO112” (Blepharisma japonicum, WO2011076882), pFCO116 (Korida algicida, WO2011076889), and pFCO117” (see Example B2, above), soybean transformation was achieved as described in Example 10 of WO2011076882 (PCT/EP2010/070567) for Blepharisma japonicum (FMP37) and WO2011076889 (PCT/EP2010/070575) for Kordia algicida (FMP27). Seeds from TO events showing tolerance to tembotrione were harvested.
T1 Soybean seeds were transferred to single pots and grown under standard cultivation conditions, see WO2011076882.
Two weeks later, plants will be sprayed with several N-(tetrazol-4-yl)- or N-(triazol-3-yl)arylcarboxamides as defined above.

[8] = tested on: cotton plants expressing FMP 27 and FMP 37; experiment: Tolerance to HPPD inhibitors of cotton plants expressing tolerant HPPD enzymes; settings: T1 cotton plants; one week after application
Description: as §6, with “the cotton” for “the soybean”, “Example 11;” for “Example 9;”, “Example 11” for “Example 9”
Between the sequence corresponding to the promoter and the sequence coding for the HPPD a DNA sequence coding for a transit peptide to the chloroplast was inserted, in order to add at the N-terminal extremity of the protein a target signal to allow the localization of the HPPD protein into the plant chloroplast. Cotton transformation was achieved as described in Example 12 of WO2011076882 (PCT/EP2010/070567) for Blepharisma japonicum (FMP37) and WO2011076889 (PCT/EP2010/070575) for Kordia algicida (FMP27). Seeds from T0 events showing tolerance to tembotrione were harvested.
T1 Cotton seeds were transferred to single pots and grown under standard cultivation conditions, see WO2011076882 (PCT/EP2010/070567) for Blepharisma japonicum (FMP37) and WO2011076889 (PCT/EP2010/070575) for Kordia algicida (FMP27).
At least 4 weeks later, plants will be sprayed with several N-(tetrazol-4-yl)- or N-(triazol-3-yl)arylcarboxamides as defined above.

Question: For `CCn1nnnc1NC(=O)c1ccc(C(F)(F)F)c(S(C)(=O)=O)c1C` [Compound 5-148], which “number of plants with Damage 0 (No damage)” value (“number … (No damage)” below) [1] is on record?
Answer: The value was 0.

Question: And the “number of plants with Damage 1 (Light and transient damage)” value (“number … (Light and transient damage)” below) [1]?
Answer: The value was 0.

Question: And the “number of plants with Damage 2 (Strong damage)” value (“number … (Strong damage)” for short) [1]?
Answer: Its value is 0.

Question: What about the “number of plants with Damage 3 (Very strong damage)” value (“number … (Very strong damage)” for short) [1] of the same compound?
Answer: Its value is 10.

Question: And the “number … (No damage)” value ([2]; AvHPPD line 656)?
Answer: Its value is 2.

Question: And the “number … (Light and transient damage)” value ([2]; AvHPPD line 656)?
Answer: The value was 1.

Question: What about the “number … (Strong damage)” value ([2]; AvHPPD line 656) of the same compound?
Answer: Its value is 3.

Question: And the “number … (Very strong damage)” value ([2]; AvHPPD line 656)?
Answer: Its value is 4.

Question: What about the “number … (No damage)” value ([2]; AvHPPD line 659) of the same compound?
Answer: The value was 3.

Question: What about the “number … (Light and transient damage)” value ([2]; AvHPPD line 659) of the same compound?
Answer: The value was 1.

Question: What about the “number … (Strong damage)” value ([2]; AvHPPD line 659) of the same compound?
Answer: Its value is 0.

Question: And the “number … (Very strong damage)” value ([2]; AvHPPD line 659)?
Answer: The value was 6.

Question: And the “number … (No damage)” value ([2]; AvHPPD line 699)?
Answer: Its value is 1.

Question: And the “number … (Light and transient damage)” value ([2]; AvHPPD line 699)?
Answer: The value was 1.

Question: And the “number … (Strong damage)” value ([2]; AvHPPD line 699)?
Answer: The value was 1.

Question: What about the “number … (Very strong damage)” value ([2]; AvHPPD line 699) of the same compound?
Answer: The value was 7.

Question: What about the “number … (No damage)” value ([3]; FMP37 line 749) of the same compound?
Answer: The value was 2.

Question: And the “number … (Light and transient damage)” value ([3]; FMP37 line 749)?
Answer: The value was 3.

Question: What about the “number … (Strong damage)” value ([3]; FMP37 line 749) of the same compound?
Answer: The value was 2.

Question: And the “number … (Very strong damage)” value ([3]; FMP37 line 749)?
Answer: Its value is 3.

Question: What about the “number … (No damage)” value ([3]; FMP37 line 754) of the same compound?
Answer: The value was 2.

Question: What about the “number … (Light and transient damage)” value ([3]; FMP37 line 754) of the same compound?
Answer: Its value is 1.

Question: And the “number … (Strong damage)” value ([3]; FMP37 line 754)?
Answer: Its value is 5.

Question: And the “number … (Very strong damage)” value ([3]; FMP37 line 754)?
Answer: Its value is 2.

Question: What about the “number … (No damage)” value ([3]; FMP37 line 795) of the same compound?
Answer: The value was 1.

Question: What about the “number … (Light and transient damage)” value ([3]; FMP37 line 795) of the same compound?
Answer: Its value is 0.

Question: What about the “number … (Strong damage)” value ([3]; FMP37 line 795) of the same compound?
Answer: Its value is 6.

Question: And the “number … (Very strong damage)” value ([3]; FMP37 line 795)?
Answer: Its value is 3.

Question: What about the “number … (No damage)” value ([4]; FMP27 line 733) of the same compound?
Answer: The value was 3.

Question: What about the “number … (Light and transient damage)” value ([4]; FMP27 line 733) of the same compound?
Answer: The value was 1.

Question: And the “number … (Strong damage)” value ([4]; FMP27 line 733)?
Answer: The value was 4.

Question: What about the “number … (Very strong damage)” value ([4]; FMP27 line 733) of the same compound?
Answer: The value was 2.

Question: And the “number … (No damage)” value ([4]; FMP27 line 734)?
Answer: The value was 4.

Question: What about the “number … (Light and transient damage)” value ([4]; FMP27 line 734) of the same compound?
Answer: The value was 2.

Question: What about the “number … (Strong damage)” value ([4]; FMP27 line 734) of the same compound?
Answer: The value was 0.

Question: What about the “number … (Very strong damage)” value ([4]; FMP27 line 734) of the same compound?
Answer: The value was 4.

Question: And the “number … (No damage)” value ([4]; FMP27 line 735)?
Answer: Its value is 0.

Question: And the “number … (Light and transient damage)” value ([4]; FMP27 line 735)?
Answer: Its value is 4.

Question: What about the “number … (Strong damage)” value ([4]; FMP27 line 735) of the same compound?
Answer: Its value is 4.

Question: What about the “number … (Very strong damage)” value ([4]; FMP27 line 735) of the same compound?
Answer: The value was 2.

Question: What about the “number … (No damage)” value [5] of the same compound?
Answer: Its value is 0.

Question: What about the “number … (Light and transient damage)” value [5] of the same compound?
Answer: Its value is 3.

Question: What about the “number … (Strong damage)” value [5] of the same compound?
Answer: Its value is 2.

Question: And the “number … (Very strong damage)” value [5]?
Answer: The value was 4.

Question: What about the “tolerance of the transgenic tobacco plants (symptoms due to application of the herbicide)” value ([6]; T1 plants sprayed, evaluated one week after application) of the same compound?
Answer: Its value is “good tolerance”.

Question: What about the “sensitivity of transgenic tobacco plants compared to wild type (wt) plants” value ([6]; all tested independent lines, agronomically relevant dose) of the same compound?
Answer: The value was “less sensitive”.

Question: And the “tolerance of transgenic plants compared to the wild-type soybean plants” value [7]?
Answer: The value was “superior tolerance”.

Question: What about the “tolerance of transgenic plants compared to the wild-type cotton plants” value [8] of the same compound?
Answer: The value was “superior tolerance”.
